We go through 13 compounds from PubChem BioAssay AID328 (DTP/NCI, 2004).

In the experiment the test system is BDF1 mice, P388 leukemia ip, median survival T/C. As to the kind of experiment: NCI In Vivo Anticancer Drug Screen. Data for tumor model P388 Leukemia (intraperitoneal) in B6D2F1 (BDF1) mice. The note with it: endpoint: median survival time, higher = longer survival. The procedure, abridged:
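Transplantable tumour in mice; compound vs vehicle dosing; survival scored; ratio of treated to control reported.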

[1] abbreviates: dose: 100.0 mg/kg/injection, schedule: Q01DX009 (ip), vehicle: saline with Tween-80.
The mark [2] stands for this setting: dose: 200.0 mg/kg/injection, schedule: Q01DX009 (ip), vehicle: saline with Tween-80.
Where [3] appears, read: dose: 50.0 mg/kg/injection, schedule: Q01DX009 (ip), vehicle: saline with Tween-80.
Setting [4] is: dose: 3.13 mg/kg/injection, schedule: Q01DX009 (ip), vehicle: saline with Tween-80.

Where “and” joins values, the source holds several entries; their conditions need not be identical. Equal values may be shown once. Toxic doses and inconclusive results are not listed.

As to `CNC(=N)c1ccc(NC(=N)c2ccc(NC(=N)c3ccc(NC(=O)Nc4ccc(C(=N)NC)cc4)cc3)cc2)cc1`, the T/C (dose: 1.1 mg/kg/injection, schedule: Q04DX003 (ip), vehicle: saline) was 122 % of control; the T/C (dose: 2.4 mg/kg/injection, schedule: Q01DX009 (ip), vehicle: saline) is 170 % of control; the T/C (dose: 3.6 mg/kg/injection, schedule: Q01DX009 (ip), vehicle: saline) was 187 % of control; the T/C (dose: 5.0 mg/kg/injection, schedule: Q01DX009 (ip), vehicle: saline) is 154 % of control and 157 % of control; the T/C (dose: 5.3 mg/kg/injection, schedule: Q01DX009 (ip), vehicle: saline) is 195 % of control; the T/C (dose: 5.3 mg/kg/injection, schedule: Q04DX003 (ip), vehicle: saline) was 154 % of control. Further, the T/C is 161 % of control (dose: 6.25 mg/kg/injection, schedule: Q01DX009 (ip), vehicle: saline); 165 % of control (dose: 8.0 mg/kg/injection, schedule: Q01DX009 (ip), vehicle: saline); 188 % of control (dose: 12.0 mg/kg/injection, schedule: Q01DX009 (ip), vehicle: saline); 154 % of control (dose: 12.0 mg/kg/injection, schedule: Q04DX003 (ip), vehicle: saline); 230 % of control (dose: 12.5 mg/kg/injection, schedule: Q01DX009 (ip), vehicle: saline); 230 % of control (dose: 18.0 mg/kg/injection, schedule: Q01DX009 (ip), vehicle: saline). Moreover, the T/C was 187 % of control (dose: 18.0 mg/kg/injection, schedule: Q04DX003 (ip), vehicle: saline) and 250 % of control (dose: 25.0 mg/kg/injection, schedule: Q04DX003 (ip), vehicle: saline).
Turning to `CCCCS(=O)(=O)OCCCCOS(=O)(=O)CCCC`, the T/C runs as follows: under setting [1], 113 % of control; (dose: 100.0 mg/kg/injection, schedule: Q04DX003 (ip), vehicle: saline with Tween-80) 104 % of control; under setting [2], 118 % of control; (dose: 200.0 mg/kg/injection, schedule: Q04DX003 (ip), vehicle: saline with Tween-80) 109 % of control; (dose: 264.0 mg/kg/injection, schedule: Q04DX003 (ip), vehicle: saline with Tween-80) 91 % of control; (dose: 400.0 mg/kg/injection, schedule: Q01DX009 (ip), vehicle: saline with Tween-80) 122 % of control. Besides, the T/C (dose: 400.0 mg/kg/injection, schedule: Q04DX003 (ip), vehicle: saline with Tween-80) was 95 % of control and the T/C (dose: 600.0 mg/kg/injection, schedule: Q04DX003 (ip), vehicle: saline with Tween-80) was 104 % of control.
Turning to `C=C1C(=O)OC2C1C(OC(=O)/C(C)=C/CO)C/C(C)=C/CCC1(CO)OC21` (stereo unspecified), the T/C is, setting by setting: (dose: 0.5 mg/kg/injection, schedule: Q01DX009 (ip), vehicle: Klucel (hydroxypropylcellulose) (HPC)) 97 % of control; (dose: 1.0 mg/kg/injection, schedule: Q01DX009 (ip), vehicle: Klucel (hydroxypropylcellulose) (HPC)) 94 % of control; (dose: 2.0 mg/kg/injection, schedule: Q01DX009 (ip), vehicle: Klucel (hydroxypropylcellulose) (HPC)) 101 % of control; (dose: 4.0 mg/kg/injection, schedule: Q01DX009 (ip), vehicle: Klucel (hydroxypropylcellulose) (HPC)) 100 % of control.
As to `C=C/C=C\N(CC)CC`, the T/C was 110 % of control (dose: 0.78 mg/kg/injection, schedule: Q01DX009 (ip), vehicle: water); 109 % of control and 112 % of control (dose: 1.56 mg/kg/injection, schedule: Q01DX009 (ip), vehicle: water); 107 % of control and 121 % of control (dose: 3.12 mg/kg/injection, schedule: Q01DX009 (ip), vehicle: water); 89 % of control and 100 % of control and 102 % of control (dose: 6.25 mg/kg/injection, schedule: Q01DX009 (ip), vehicle: water); 102 % of control and 123 % of control (dose: 12.5 mg/kg/injection, schedule: Q01DX009 (ip), vehicle: water); 89 % of control and 116 % of control and 118 % of control (dose: 25.0 mg/kg/injection, schedule: Q01DX009 (ip), vehicle: water).
As to `CCOC(=O)C1=C(C)NC(C)=C(C(=O)OCC)C1c1ccccc1Cl`, the T/C is 95 % of control (dose: 28.75 mg/kg/injection, schedule: Q04DX003 (ip), vehicle: Klucel (hydroxypropylcellulose) (HPC)); 104 % of control (dose: 57.5 mg/kg/injection, schedule: Q04DX003 (ip), vehicle: Klucel (hydroxypropylcellulose) (HPC)); 90 % of control (dose: 75.0 mg/kg/injection, schedule: Q01DX009 (ip), vehicle: Klucel (hydroxypropylcellulose) (HPC)); 86 % of control (dose: 115.0 mg/kg/injection, schedule: Q01DX009 (ip), vehicle: Klucel (hydroxypropylcellulose) (HPC)); 100 % of control (dose: 115.0 mg/kg/injection, schedule: Q04DX003 (ip), vehicle: Klucel (hydroxypropylcellulose) (HPC)); 100 % of control (dose: 170.0 mg/kg/injection, schedule: Q01DX001 (ip), vehicle: Klucel (hydroxypropylcellulose) (HPC)). The T/C (dose: 260.0 mg/kg/injection, schedule: Q01DX001 (ip), vehicle: Klucel (hydroxypropylcellulose) (HPC)) was 100 % of control.
As for `Cc1cc(C)c(NC(=O)N(CCCl)N=O)cc1C`, the T/C is 110 % of control (dose: 20.0 mg/kg/injection, schedule: Q01DX009 (ip), vehicle: other); 100 % of control (dose: 45.0 mg/kg/injection, schedule: Q01DX009 (ip), vehicle: other); 122 % of control (dose: 50.0 mg/kg/injection, schedule: Q01DX009 (ip), vehicle: other); 105 % of control under setting [3]; 108 % of control (dose: 50.0 mg/kg/injection, schedule: Q04DX003 (ip), vehicle: saline); 150 % of control (dose: 65.0 mg/kg/injection, schedule: Q01DX009 (ip), vehicle: other). The T/C by setting is: under setting [1], 105 % of control; (dose: 100.0 mg/kg/injection, schedule: Q04DX003 (ip), vehicle: saline) 108 % of control; (dose: 200.0 mg/kg/injection, schedule: Q01DX009 (ip), vehicle: other) 122 % of control; under setting [2], 105 % of control; (dose: 200.0 mg/kg/injection, schedule: Q04DX003 (ip), vehicle: saline) 95 % of control.
As for `O=Cc1ccc2c(c1)OCCOCCOCCOCCO2`, the T/C runs as follows: under setting [3], 104 % of control; under setting [1], 121 % of control; under setting [2], 117 % of control.
As for `C/C=C(\C)C(=O)OC1CC[N+]2([O-])CCC(COC(=O)/C(=C/C)CO)C12` (stereo unspecified), the T/C (dose: 30.0 mg/kg/injection, schedule: Q01DX010 (ip), vehicle: saline) is 111 % of control; the T/C (dose: 60.0 mg/kg/injection, schedule: Q01DX010 (ip), vehicle: saline) is 111 % of control; the T/C (dose: 100.0 mg/kg/injection, schedule: Q01DX010 (ip), vehicle: saline) was 116 % of control.
For the compound `CC1(C)N=C(N)N=C(N)N1c1ccc(OCCNC(=O)Nc2ccc(S(=O)(=O)F)cc2)c(Cl)c1`, the T/C (dose: 4.8 mg/kg/injection, schedule: Q01DX009 (ip), vehicle: saline) was 118 % of control; the T/C (dose: 25.0 mg/kg/injection, schedule: Q01DX009 (ip), vehicle: saline) is 175 % of control; the T/C (dose: 50.0 mg/kg/injection, schedule: Q01DX009 (ip), vehicle: saline) is 180 % of control; the T/C (dose: 66.0 mg/kg/injection, schedule: Q01DX009 (ip), vehicle: saline) was 168 % of control; the T/C (dose: 66.0 mg/kg/injection, schedule: Q04DX003 (ip), vehicle: saline) was 123 % of control; the T/C (dose: 100.0 mg/kg/injection, schedule: Q01DX009 (ip), vehicle: saline) was 159 % of control and 200 % of control.
`CCOCc1c(COc2ccc(OC)cc2)n(CC#CCOc2ccc(OC)cc2)c2ccc(Br)cc12`: the T/C reads like this: under setting [3], 101 % of control; under setting [1], 93 % of control; under setting [2], 98 % of control.
`NC(=O)/C=C/C(=O)c1c(Cl)cccc1Cl`: the T/C is, setting by setting: (dose: 1.56 mg/kg/injection, schedule: Q01DX009 (ip), vehicle: saline with Tween-80) 109 % of control and 115 % of control; under setting [4], 118 % of control; (dose: 6.25 mg/kg/injection, schedule: Q01DX009 (ip), vehicle: saline with Tween-80) 123 % of control and 124 % of control; (dose: 12.5 mg/kg/injection, schedule: Q01DX009 (ip), vehicle: saline with Tween-80) 95 % of control.
For `COC1=CC(=O)C(Cl)=C(OC)C1=O`, the T/C is, setting by setting: (dose: 0.78 mg/kg/injection, schedule: Q01DX009 (ip), vehicle: saline) 113 % of control; (dose: 1.56 mg/kg/injection, schedule: Q01DX009 (ip), vehicle: saline) 113 % of control; under setting [4], 110 % of control; (dose: 3.13 mg/kg/injection, schedule: Q01DX009 (ip), vehicle: saline) 104 % of control.
Consider `CC(=O)OC(C(=O)NCc1ccccc1)C(OC(C)=O)C(C)OS(C)(=O)=O` (stereo unspecified), for which the T/C was 98 % of control under setting [3], 106 % of control under setting [1] and 89 % of control under setting [2].
